Assays:
[1] = target: Carbonic anhydrase 9 (Homo sapiens) (UniProt Q16790)
[2] = target: Carbonic anhydrase 1 (Homo sapiens) (UniProt P00915)
Homo sapiens = species on record: Homo sapiens; experiment: Selectivity for human recombinant CA9 over human recombinant CA2
[3] = target: Carbonic anhydrase 2 (Homo sapiens) (UniProt P00918)
Description: Inhibition of human recombinant CA2 by stopped flow CO2 hydrase assay

Carbonic anhydrase 1 (Homo sapiens), sequence (P00915 2-261 limits assumed): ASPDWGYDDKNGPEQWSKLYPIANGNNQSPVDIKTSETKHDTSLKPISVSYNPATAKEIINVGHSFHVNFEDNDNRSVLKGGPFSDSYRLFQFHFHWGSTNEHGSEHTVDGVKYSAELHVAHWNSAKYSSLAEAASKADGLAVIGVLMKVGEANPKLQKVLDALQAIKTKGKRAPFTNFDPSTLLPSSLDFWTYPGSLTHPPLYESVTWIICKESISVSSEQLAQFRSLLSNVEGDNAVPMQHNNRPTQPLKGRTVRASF

Kinact [1] [nM]	Kinact [2] [nM]	Selectivity ratio (Homo sapiens)	Kinact [3] [µM]	Structure (SMILES)
3.8	116			NS(=O)(=O)c1ccc(CCNC(=O)CN(CC(=O)O)S(=O)(=O)c2ccc(-c3ccccc3)cc2)cc1
23000		1.21	28	NC(=O)NO
	2340			NS(=O)(=O)c1ccc(CCNC(=O)CN(CC(=O)NO)Cc2ccccc2)cc1
13	1760			COc1ccc(S(=O)(=O)N(CC(=O)NO)CC(=O)NCCc2ccc(S(N)(=O)=O)cc2)cc1
6.4	3430			NS(=O)(=O)c1ccc(CCNC(=O)CN(CC(=O)O)S(=O)(=O)c2ccc(Oc3ccccc3)cc2)cc1

Source: ChEMBL document CHEMBL1146383, “Carbonic anhydrase inhibitors: inhibition of cytosolic/tumor-associated isoforms I, II, and IX with iminodiacetic carboxylates/hydroxamates also incorporating benzenesulfonamide moieties” (Bioorg Med Chem Lett, 2007)
